The results in this text go back to ChEMBL document CHEMBL1201862, “PubChem BioAssay data set” (2004).

Holding throughout (test): inhibition of tumour cell growth, NCI panel, 48 h
The test system of experiment [1] is HOP-92.
For experiment [2], the system named is MCF7.
Experiment [3] deals with UACC-62.
Experiment [4] concerns SF-539.
Experiment [5] deals with HT-29.
In experiment [6] the test system is MDA-MB-435.
The subject of experiment [7] is IGROV-1.
The test system of experiment [8] is NCI-H23.
The test system of experiment [9] is OVCAR-4.
The test system of experiment [10] is NCI-H226.
Experiment [11] concerns EKVX.
Experiment [12] deals with NCI-H522.
Experiment [13] relates to A498.
The subject of experiment [14] is BT-549.
For experiment [15], the system named is NCI-H460.
For experiment [16], the system named is OVCAR-8.
Experiment [17] deals with PC-3.
The test system of experiment [18] is HCT-116.
Experiment [19] has as its system COLO 205.
Experiment [20] relates to SN12C.

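Briefly, cells in 96-well plates were exposed to five compound concentrations for 48 h, and endpoints were estimated by linear interpolation. GI50: concentration for 50% inhibition of growth.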 Active and inactive are the calls of the source. No stated cut-off is given here; in the data, active = GI50 up to about 1.1 µM and inactive = higher. A value given as a limit tells only on which side of the number the result lay.

As to `COc1ccc2c(ccc3c(COC(=O)NC(C)C)c(COC(=O)NC(C)C)n(C)c32)c1`, the GI50 in [1] was 11.2 µM (inactive); in experiment [2] it was 4.75 µM (inactive); in experiment [3], 4.42 µM (inactive); in experiment [4] it was 5.82 µM (inactive); in [5], 10.8 µM (inactive); in experiment [6], 7.74 µM (inactive). Moreover, the GI50 in experiment [7] was 4.13 µM (inactive); in experiment [8] it was 3.5 µM (inactive); in [9], 12.4 µM (inactive); in experiment [10] it was 3.08 µM (inactive); in [11], 16.4 µM (inactive); in experiment [12], 2.36 µM (inactive). Moreover, the GI50 in [13] was 7.33 µM (inactive); in experiment [14], 11.9 µM (inactive); in experiment [15], 0.414 µM (active); in [16] it was 5.9 µM (inactive); in [17], 11.1 µM (inactive); in experiment [18], 6.04 µM (inactive). The GI50 in experiment [19] is 10.8 µM (inactive).

Take `O=C1N[C@H]2C(=O)c3c(Cl)sc(Cl)c3[C@H]2O1`: the GI50 is 7.45 µM (inactive) in experiment [1]; 16.7 µM (inactive) in [2]; 13.3 µM (inactive) in experiment [3]; 5.85 µM (inactive) in [4]; 2.46 µM (inactive) in experiment [5]; 4.81 µM (inactive) in [6]. In addition, the GI50 in experiment [7] is 4.69 µM (inactive); in [8] it was 5.94 µM (inactive); in experiment [9] it was 2.15 µM (inactive); in experiment [10], 32.1 µM (inactive); in [11], 2 µM (inactive); in experiment [12], 3.13 µM (inactive). Moreover, the GI50 is 24.1 µM (inactive) in experiment [13]; 23.3 µM (inactive) in experiment [14]; 10.9 µM (inactive) in experiment [20]; 18.1 µM (inactive) in [15]; 2.79 µM (inactive) in experiment [16]; 14.2 µM (inactive) in experiment [17]. The GI50 is 3.66 µM (inactive) in [18] and 6.52 µM (inactive) in [19].

`CN1CCN([C@H]2C[C@H]3[C@@H]4CC=C5C[C@@H](N6CCCC6)CC[C@]5(C)[C@H]4CC[C@]3(C)[C@H]2O)CC1`: the GI50 in experiment [1] was 84.9 µM (inactive); in experiment [2] it was > 100 µM (inactive); in experiment [3], 67.3 µM (inactive); in experiment [4] it was 16.2 µM (inactive); in [5] it was 8 µM (inactive); in experiment [6], 26.1 µM (inactive). The GI50 was 67.8 µM (inactive) in experiment [7]; > 100 µM (inactive) in experiment [8]; > 100 µM (inactive) in experiment [9]; > 100 µM (inactive) in experiment [10]; > 100 µM (inactive) in experiment [11]; > 100 µM (inactive) in experiment [12]. In addition, the GI50 in experiment [13] is 46.1 µM (inactive); in experiment [14], 95.5 µM (inactive); in experiment [20] it was > 100 µM (inactive); in [15], 71.8 µM (inactive); in experiment [16], 66.8 µM (inactive); in [17], 47.9 µM (inactive). Also, the GI50 in [18] is 22 µM (inactive); in experiment [19], 12.6 µM (inactive).

For `C=C(C(=O)OC)c1cc2ccccc2n1S(=O)(=O)c1ccccc1`, the GI50 in experiment [1] was 0.927 µM (active); in experiment [2], 1.38 µM (inactive); in experiment [3] it was 4.52 µM (inactive); in experiment [4], 1.62 µM (inactive); in experiment [5] it was 2.91 µM (inactive); in experiment [6] it was 2.55 µM (inactive). Also, the GI50 in [7] was 1.55 µM (inactive); in experiment [8], 3.44 µM (inactive); in [9], 4.82 µM (inactive); in experiment [10], 2.36 µM (inactive); in experiment [11] it was 12.1 µM (inactive); in experiment [12], 0.891 µM (active). For the same molecule, the GI50 is 2.15 µM (inactive) in experiment [13]; 1.73 µM (inactive) in experiment [14]; 2.67 µM (inactive) in experiment [20]; 2.21 µM (inactive) in experiment [15]; 2.44 µM (inactive) in [16]; 1.96 µM (inactive) in experiment [17]. The GI50 in experiment [18] was 6.55 µM (inactive); in experiment [19] it was 1.95 µM (inactive).

In the case of `O=C1CSC(c2ccccc2O)N1c1nc2cc3sc(N4C(=O)CSC4c4ccccc4O)nc3cc2s1` (stereo not drawn), the GI50 is > 42.5 µM (inactive) in [1]; 11.5 µM (inactive) in experiment [2]; > 87.5 µM (inactive) in experiment [3]; 59.6 µM (inactive) in experiment [4]; 20 µM (inactive) in experiment [5]; 34.3 µM (inactive) in experiment [6]. In addition, the GI50 in [7] is 18.9 µM (inactive); in experiment [8], 9.57 µM (inactive); in experiment [9] it was 44.1 µM (inactive); in [10], 21 µM (inactive); in [11], 61.9 µM (inactive); in [12] it was 7.06 µM (inactive). For the same molecule, the GI50 in experiment [13] was > 42.9 µM (inactive); in [14], 11.9 µM (inactive); in [20] it was > 40.5 µM (inactive); in [15] it was 2.3 µM (inactive); in [16], 37.2 µM (inactive); in experiment [17] it was 45.7 µM (inactive). The GI50 was 20.7 µM (inactive) in [18] and 3.61 µM (inactive) in experiment [19].

Turning to `C[As+](C)(c1ccc(Br)c([N+](=O)[O-])c1)c1ccc(Br)c([N+](=O)[O-])c1`, the GI50 in experiment [1], in experiment [2], in experiment [3], in experiment [4], in experiment [5] and in [6] was > 100 µM (inactive) each time. Also, the GI50 in [7] was > 100 µM (inactive); in experiment [8] it was > 100 µM (inactive); in [9], > 100 µM (inactive); in experiment [10], > 100 µM (inactive); in experiment [11], > 100 µM (inactive); in experiment [12], 87.7 µM (inactive). Also, the GI50 in experiment [13], in [14], in experiment [20], in [15], in experiment [16] and in experiment [17] was > 100 µM (inactive) throughout. For the same molecule, the GI50 in experiment [18] and in experiment [19] was > 100 µM (inactive) each time.

As for `Fc1ccc2c(c1)nc1n2C(c2c(Cl)cccc2Cl)SC1` (stereo not drawn), the GI50 in experiment [1] is 6.87 µM (inactive); in experiment [2] it was 15.1 µM (inactive); in experiment [3], 11.8 µM (inactive); in experiment [4], 18.1 µM (inactive); in experiment [5], 16 µM (inactive); in experiment [6] it was 11.4 µM (inactive). Also, the GI50 in experiment [7] is 14.1 µM (inactive); in experiment [8], 13.1 µM (inactive); in experiment [9], 15 µM (inactive); in [10] it was 17.3 µM (inactive); in experiment [12] it was 14.7 µM (inactive); in experiment [13], 20.9 µM (inactive). Moreover, the GI50 in experiment [14] was 16.7 µM (inactive); in experiment [20], 17.3 µM (inactive); in experiment [15], 8.17 µM (inactive); in experiment [16] it was 15.6 µM (inactive); in [17], 14.7 µM (inactive); in experiment [18] it was 6.41 µM (inactive). The GI50 in experiment [19] was 16.7 µM (inactive).
